According to patent US8975417B2, “Pyrazolopyrrolidine derivatives and their use in the treatment of disease” (Novartis AG, priority 2013, dated 2015):

How the values were obtained:
[1] = tested on: MV-4-11 cells; assay: Cell growth inhibition assay (CellTiter-Glo), MV-4-11; assay type: cell-based; conditions: Homo sapiens, MV4-11, read-out: MV-4-11 TGI
How it was run: (§1)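 Compounds tested as 3-fold dilution series starting at 10 μM (DMSO 0.1% final); viability read by cellular ATP (CTG luminescence) at 37° C. Signal corrected for no-cell background and a day-0 plate, scaled −100% to 100%; four-parameter fitting gives IC50 and TGI.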

[2] = tested on: THP-1 cells; assay: Cell growth inhibition assay (CellTiter-Glo), THP-1; assay type: cell-based; conditions: Homo sapiens, read-out: THP-1 TGI
How it was run: as §1

[3] = molecular target: His-Brd2(60-472) (Homo sapiens (Human), UniProt P25440); assay: TR-FRET in-vitro binding assay for BRD2; conditions: biochemical
His-Brd2(60-472), sequence (P25440 60-472): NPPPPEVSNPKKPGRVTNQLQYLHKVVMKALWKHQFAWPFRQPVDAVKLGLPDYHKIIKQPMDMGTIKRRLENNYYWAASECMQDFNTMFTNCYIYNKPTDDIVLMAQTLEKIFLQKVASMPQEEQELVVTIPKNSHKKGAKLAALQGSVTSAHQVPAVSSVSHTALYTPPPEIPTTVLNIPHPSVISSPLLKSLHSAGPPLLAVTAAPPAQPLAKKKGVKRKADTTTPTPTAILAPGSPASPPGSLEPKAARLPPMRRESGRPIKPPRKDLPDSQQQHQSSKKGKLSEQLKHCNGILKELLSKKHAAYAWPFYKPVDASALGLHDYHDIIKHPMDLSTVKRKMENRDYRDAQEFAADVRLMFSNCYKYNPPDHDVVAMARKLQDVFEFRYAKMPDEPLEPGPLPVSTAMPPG
How it was run: (§2)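 Eight-point dilution series tested against in-house His-BRD2(60-472), BRD3(20-477) or BRD4(44-477) (45 nM in dispensed solution) binding acetyl-histone H4 (AcK5,8,12,16; 60 nM in dispensed solution). Incubation 35 min at 30 °C, pH 7.5 HEPES buffer; detection by TR-FRET using Eu-anti-His6 and streptavidin-allophycocyanin.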

[4] = molecular target: His-Brd3(20-477) (Homo sapiens (Human), UniProt Q15059); assay: TR-FRET in-vitro binding assay for BRD3; conditions: biochemical
His-Brd3(20-477), sequence (Q15059 20-477): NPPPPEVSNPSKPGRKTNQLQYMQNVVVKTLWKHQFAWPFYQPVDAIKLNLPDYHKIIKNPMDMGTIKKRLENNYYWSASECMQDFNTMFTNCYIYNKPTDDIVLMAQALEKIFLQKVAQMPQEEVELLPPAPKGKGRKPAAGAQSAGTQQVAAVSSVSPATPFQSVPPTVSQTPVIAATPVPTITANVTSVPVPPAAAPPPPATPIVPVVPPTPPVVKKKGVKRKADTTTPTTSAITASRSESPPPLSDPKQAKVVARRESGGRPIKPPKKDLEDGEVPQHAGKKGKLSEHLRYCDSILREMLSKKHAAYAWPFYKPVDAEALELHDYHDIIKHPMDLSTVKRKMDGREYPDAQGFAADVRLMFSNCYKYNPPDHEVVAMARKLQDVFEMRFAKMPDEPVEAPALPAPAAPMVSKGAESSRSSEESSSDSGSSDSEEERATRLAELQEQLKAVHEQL
How it was run: as §2

[5] = tested on: K-562 cells; assay: Cell growth inhibition assay (CellTiter-Glo), K-562; assay type: cell-based, human; conditions: Homo sapiens, K562, read-out: K-562 TGI
How it was run: as §1

`Cc1nn(-c2cncn2C)c2c1C(c1ccc(Cl)cc1)N(c1cc(C)c(=O)n(C)c1)C2=O` (stereo not drawn) [Example 83, 4-(4-chlorophenyl)-5-(1,5-dimethyl-6-oxo-1,6-dihydropyridin-3-yl)-3-methyl-1-(1-methyl-1H-imidazol-5-yl)-4,5-dihydropyrrolo[3,4-c]pyrazol-6(1H)-one] gave an IC (total growth inhibition) [1] of 0.145 µM, an IC (total growth inhibition) [2] of 0.396 µM and an IC50 [3] of 120 nM. For the same compound, the IC50 [4] was 97 nM and the IC (total growth inhibition) [5] was > 10 µM.

Compound `Cc1cc(N2C(=O)c3nn(C(=O)N(C)C)c(C)c3C2c2ccc(Cl)cc2)cn(C)c1=O` (stereo not drawn) [Example 141, 4-(4-chlorophenyl)-5-(1,5-dimethyl-6-oxo-1,6-dihydropyridin-3-yl)-N,N,3-trimethyl-6-oxo-5,6-dihydropyrrolo[3,4-c]pyrazole-2(4H)-carboxamide] has an IC (total growth inhibition) [1] of 0.222 µM, an IC (total growth inhibition) [2] of 0.527 µM and an IC50 [3] of 180 nM. The IC50 [4] was 130 nM and the IC (total growth inhibition) [5] was > 10 µM.

`COc1ncc(-n2nc(C)c3c2C(=O)N(c2cc(C)c(=O)n(C)c2)[C@H]3c2ccc(Cl)cc2)c(OC)n1` [Example 99, (S)-4-(4-chlorophenyl)-1-(2,4-dimethoxypyrimidin-5-yl)-5-(1,5-dimethyl-6-oxo-1,6-dihydropyridin-3-yl)-3-methyl-4,5-dihydropyrrolo[3,4-c]pyrazol-6(1H)-one] was tested, and the IC (total growth inhibition) [1] was 4.31 µM, the IC (total growth inhibition) [2] was > 10 µM and the IC50 [3] was 6000 nM. For the same compound, the IC50 [4] was 7600 nM and the IC (total growth inhibition) [5] was > 10 µM.

`CCc1nn(CCO)c2c1C(c1ccc(Cl)cc1)N(c1cc(C)c3onc(C)c3c1)C2=O` (stereo not drawn) [Example 79, 4-(4-chlorophenyl)-5-(3,7-dimethylbenzo[d]isoxazol-5-yl)-3-ethyl-1-(2-hydroxyethyl)-4,5-dihydropyrrolo[3,4-c]pyrazol-6(1H)-one] gave an IC (total growth inhibition) [1] of 0.42 µM, an IC (total growth inhibition) [2] of 0.461 µM and an IC50 [3] of 110 nM. For the same compound, the IC50 [4] was 86 nM and the IC (total growth inhibition) [5] was > 10 µM.

Compound `CNC(=O)n1nc(C)c2c1C(=O)N(c1cc(C)c(=O)n(C)c1)C2c1ccc(Cl)cc1` (stereo not drawn) [Example 143, 4-(4-chlorophenyl)-5-(1,5-dimethyl-6-oxo-1,6-dihydropyridin-3-yl)-N,3-dimethyl-6-oxo-5,6-dihydropyrrolo[3,4-c]pyrazole-1(4H)-carboxamide] has an IC (total growth inhibition) [1] of 0.116 µM, an IC (total growth inhibition) [2] of 0.621 µM and an IC50 [3] of 330 nM. The IC50 [4] was 270 nM and the IC (total growth inhibition) [5] was > 10 µM.

In the case of `Cc1nn(C2CN(C)C2)c2c1C(c1ccc(Cl)cc1)N(c1cc(C)c3nnc(C)n3c1)C2=O` (stereo not drawn) [Example 157, 4-(4-chlorophenyl)-5-(3,8-dimethyl-[1,2,4]triazolo[4,3-a]pyridin-6-yl)-3-methyl-1-(1-methylazetidin-3-yl)-4,5-dihydropyrrolo[3,4-c]pyrazol-6(1H)-one], the IC (total growth inhibition) [1] is reported as 0.0833 µM, the IC (total growth inhibition) [2] is reported as 0.312 µM and the IC50 [3] is reported as 77 nM. For the same compound, the IC50 [4] was 200 nM and the IC (total growth inhibition) [5] was > 10 µM.

With `Cc1cc(N2C(=O)c3c(c(C4CC4)nn3-c3ccnn3C)C2c2ccc(Cl)cc2)cn2c(C)nnc12` (stereo not drawn) [Example 117, 4-(4-chlorophenyl)-3-cyclopropyl-5-(3,8-dimethyl-[1,2,4]triazolo[4,3-a]pyridin-6-yl)-1-(1-methyl-1H-pyrazol-5-yl)-4,5-dihydropyrrolo[3,4-c]pyrazol-6(1H)-one] the IC (total growth inhibition) [1] was 0.0391 µM, the IC (total growth inhibition) [2] was 0.0671 µM and the IC50 [3] was 34 nM. The IC50 [4] was 38 nM and the IC (total growth inhibition) [5] was > 10 µM.

`COc1ncccc1-n1nc(C)c2c1C(=O)N(c1cc(C)c3nnc(C)n3n1)C2c1ccc(Cl)cc1` (stereo not drawn) [Example 111, 4-(4-chlorophenyl)-5-(3,8-dimethyl-[1,2,4]triazolo[4,3-b]pyridazin-6-yl)-1-(2-methoxypyridin-3-yl)-3-methyl-4,5-dihydropyrrolo[3,4-c]pyrazol-6(1H)-one] gave an IC (total growth inhibition) [1] of 0.0306 µM, an IC (total growth inhibition) [2] of 0.0484 µM and an IC50 [3] of 32 nM. For the same compound, the IC50 [4] was 24 nM and the IC (total growth inhibition) [5] was > 10 µM.

For `Cc1nn(C2CC2)c2c1C(c1ccc(Cl)cc1)N(c1ccc3nnn(C)c3n1)C2=O` (stereo not drawn) [Example 102, 4-(4-chlorophenyl)-1-cyclopropyl-3-methyl-5-(3-methyl-3H-[1,2,3]triazolo[4,5-b]-pyridin-5-yl)-4,5-dihydropyrrolo[3,4-c]pyrazol-6(1H)-one], the IC (total growth inhibition) [1] was 0.141 µM, the IC (total growth inhibition) [2] was 0.304 µM and the IC50 [3] was 72 nM. The IC50 [4] was 55 nM and the IC (total growth inhibition) [5] was > 10 µM.

`COc1ncc(-n2nc3c(c2C(C)C)C(c2ccc(Cl)cc2)N(c2ccc4onc(C)c4c2)C3=O)c(OC)n1` (stereo not drawn) [Example 54, 4-(4-chlorophenyl)-2-(2,4-dimethoxypyrimidin-5-yl)-3-isopropyl-5-(3-methylbenzo-[d]isoxazol-5-yl)-4,5-dihydropyrrolo[3,4-c]pyrazol-6(2H)-one] showed an IC (total growth inhibition) [1] of 0.661 µM, an IC (total growth inhibition) [2] of 1.43 µM and an IC50 [3] of 480 nM. For the same compound, the IC50 [4] was 300 nM and the IC (total growth inhibition) [5] was > 10 µM.

`COc1ncccc1-n1nc(C)c2c1C(=O)N(c1cc(C)c3nnc(C)n3c1)C2c1ccc(Cl)cc1` (stereo not drawn) [Example 101, 4-(4-chlorophenyl)-5-(3,8-dimethyl-[1,2,4]triazolo[4,3-a]pyridin-6-yl)-1-(2-methoxypyridin-3-yl)-3-methyl-4,5-dihydropyrrolo[3,4-c]pyrazol-6(1H)-one] was tested, and the IC (total growth inhibition) [1] was 0.0447 µM, the IC (total growth inhibition) [2] was 0.102 µM and the IC50 [3] was 43 nM. The IC50 [4] was 36 nM and the IC (total growth inhibition) [5] was > 10 µM.

For `Cc1ncccc1-n1nc(C)c2c1C(=O)N(c1cc(C)c(=O)n(C)c1)C2c1ccc(Cl)cc1` (stereo not drawn) [Example 82, 4-(4-chlorophenyl)-5-(1,5-dimethyl-6-oxo-1,6-dihydropyridin-3-yl)-3-methyl-1-(2-methylpyridin-3-yl)-4,5-dihydropyrrolo[3,4-c]pyrazol-6(1H)-one], the IC (total growth inhibition) [1] was 0.139 µM, the IC (total growth inhibition) [2] was 0.406 µM and the IC50 [3] was 97 nM. The IC50 [4] was 96 nM and the IC (total growth inhibition) [5] was > 10 µM.

Compound `CCn1nc2c(c1C)C(c1ccc(Cl)cc1)N(c1cc(C)c3nnc(C)n3c1)C2=O` (stereo not drawn) [Example 115, 4-(4-chlorophenyl)-5-(3,8-dimethyl-[1,2,4]triazolo[4,3-a]pyridin-6-yl)-2-ethyl-3-methyl-4,5-dihydropyrrolo[3,4-c]pyrazol-6(2H)-one] has an IC (total growth inhibition) [1] of 0.0482 µM, an IC (total growth inhibition) [2] of 0.0712 µM and an IC50 [3] of 48 nM. For the same compound, the IC50 [4] was 46 nM and the IC (total growth inhibition) [5] was > 10 µM.

In the case of `CCOC(=O)N1CC(n2nc(C)c3c2C(=O)N(c2cc(C)c(=O)n(C)c2)C3c2ccc(Cl)cc2)C1` (stereo not drawn) [Example 155, Ethyl 3-(4-(4-chlorophenyl)-5-(1,5-dimethyl-6-oxo-1,6-dihydropyridin-3-yl)-3-methyl-6-oxo-5,6-dihydropyrrolo[3,4-c]pyrazol-1(4H)-yl)azetidine-1-carboxylate], the IC (total growth inhibition) [1] is reported as 0.117 µM, the IC (total growth inhibition) [2] is reported as 0.305 µM and the IC50 [3] is reported as 80 nM. For the same compound, the IC50 [4] was 76 nM and the IC (total growth inhibition) [5] was > 10 µM.

`Cc1cc(N2C(=O)c3nn(C4CNC4)c(C)c3C2c2ccc(Cl)cc2)cn2c(C)nnc12` (stereo not drawn) [Example 152, 2-(azetidin-3-yl)-4-(4-chlorophenyl)-5-(3,8-dimethyl-[1,2,4]triazolo[4,3-a]pyridin-6-yl)-3-methyl-4,5-dihydropyrrolo[3,4-c]pyrazol-6(2H)-one] was tested, and the IC (total growth inhibition) [1] was 0.8 µM, the IC (total growth inhibition) [2] was 4 µM and the IC50 [3] was 100 nM. For the same compound, the IC50 [4] was 110 nM and the IC (total growth inhibition) [5] was > 10 µM.
